Laboratory results from patent publication US8586571B2, “Heterocyclic compound” (Takeda Pharmaceutical Company Limited, priority 2007, dated 2013).

What was measured:
human RBP4 = human RBP4 (Homo sapiens (Human), UniProt P02753); test: Binding assay by Retinol-RBP4-TTR ELISA (human-type ELISA); conditions: inhibition of binding of RBP4 with retinol and TTR; retinol 0.5 μM; read-out: human RBP4 binding inhibitory activity (IC50 nM)
Procedure: The action of the compound of the present invention to inhibit binding of RBP4 and retinol and TTR was evaluated using the Retinol-RBP4-TTR ELISA (human-type ELISA) system shown below.
Binding Assay by Retinol-RBP4-TTR ELISA
This ELISA system detects a complex of retinol, RBP4 and TTR by Streptoavidin-Biotin reaction.
His-tagged human RBP4 used was prepared in the above-mentioned 1C.
Biotinylate human TTR used was prepared in the above-mentioned 1E.
Streptavidin (20 μl) (10 μg/ml Streptavidin type II (Wako Pure Chemical Industries, Ltd.), 10 mM Tris-HCl (pH 7.5), 10 mM NaCl) was added to a 384 well black maxisorp plate (Nunc), and the plate was subjected to centrifugation (1000 rpm, 1 min) and coated overnight at 4° C. The plate was washed twice with PBST (PBS, 0.05% Tween 20, 100 μl/well) and blocked with 25% Block Ace (Snow Brand Milk Products Co., Ltd., PBS, 100 μl/well). The plate was subjected to centrifugation (1000 rpm, 1 min) and incubated at room temperature for 4 hr or overnight at 4° C. The plate was washed twice with PEST (PBS, 0.05% Tween 20, 100 μl/well), and biotinylated human TTR (stock solution concentration 1.3 mg/ml) diluted 1000-fold with PBST was added at 20 μl/well. The plate was subjected to centrifugation (1000 rpm, 1 min) and stood still at room temperature for 1.5 hr or overnight at 4° C. The plate was washed 3 times with PBST (100 μl/well), and His-tagged human RBP4 (stock solution concentration 0.96 mg/ml) diluted 4000-fold with a reaction buffer (50 mM Tris-HCl, 150 mM NaCl, 0.005% Tween 20, 1 mM DTT, 0.1% BSA) was added at 10 μl/well. The dilution series (8 doses from 10 mM, 200-fold concentration) of the compound was prepared with DMSO, and 1 μl of each was added to a reaction buffer (200 μl) containing retinol (0.5 μM) (Sigma-Aldrich Co.). A reaction buffer (200 μl) containing retinol and added with DMSO was used as a positive control, and reaction buffer (200 μl) free of retinol and added with DMSO was used as a negative control. Mixed solutions of retinol and the compound were added to the plate at 15 μl/well. The mixture was stirred in a platemixer subjected to centrifugation (1000 rpm, 1 min) and reacted at room temperature for 2 hr. A 35% Block Ace solution diluted with the reaction buffer was added at 10 μl/well, centrifuged (1000 rpm, 1 min) and reacted at room temperature for 30 min. The plate was washed 3 times with PBST (100 μl/well) and SuperSignal ELISA Femto Maximum Sensitivity Substrate reagent (PIERCE) was added at 30 μl/well, and the luminescence was measured by a platereader (Wallac).
The binding inhibitory rate of the compound was determined by 100×(test compound value-negative control value)/(positive control value-negative control value). The binding activity (IC50) was calculated from the binding inhibitory rate at each compound concentration using a graph drawing software, Prism (GraphPad Software Inc.).

Zucker fa/fa rat = test: TG-lowering action using Zucker fa/fa rat (Charles River Laboratories Japan Inc.); format: in vivo; conditions: oral 30 mg/kg for 2 weeks
Procedure: An anti-diabetes action and a blood triglyceride (hereinafter TG)-lowering action of the compound of the present invention were evaluated using Zucker fa/fa rats.
Male 10-week-old Zucker fa/fa rats (Charles River Laboratories Japan Inc.) were bred in group on CE-2 solid food (CLEA Japan, Inc.) until 12-week-old for acclimation under conditions with free access to food. At 12-week-old, the rats were grouped based on the body weight, blood glucose level, glycated hemoglobin level, blood RBP4 level and blood triglyceride blood (hereinafter TG) (5 per group). Thereafter, the test compound (Example 12) was orally administered at a dose of 30 mg/kg (solvent: 0.5% methylcellulose solution (3 mL/kg)) for 2 weeks. The next day of the final administration of the compound, blood samples were collected from the tail vein, and plasma was separated. Using the collected plasma, (1) RBP4 concentration and (2) TG level were measured. (1) was quantified according to the protocol described in Experimental Example 2. (2) was measured using Hitachi fully automatic analyzer (Model 7070).
A 0.5% methylcellulose solution (5 mL/kg) was orally administered to the control group. […] The results are shown in the following in mean±standard deviation (n=5).

RBP4 = RBP4 (Mus musculus (Mouse), UniProt Q00724); test: Blood RBP4 lowering action in C57BL/6J mouse (plasma RBP4 by ELISA); format: in vivo; conditions: mean±SD (n=5)
Procedure: A blood RBP4 lowering action of the compound of the present invention was evaluated using C57BL/6J mouse.
Male 7- to 15-week-old C57BL/6J mice (Charles River Laboratories Japan Inc.) were individually bred for acclimation for 4-6 days under conditions with free access to CE-2 solid food (CLEA Japan, Inc.), and grouped based on the body weight (5 per group). The next day of grouping, blood samples were collected from the orbital venous plexus, and plasma was separated (0 hr value). Thereafter, the test compounds (Examples 12, 143, 164, 189, 197, 207 and 215) were orally administered at a dose of 50 mg/kg (solvent: 0.5% methylcellulose solution (10 mL/kg)). At 4, 7 and 24 hr after administration of the compounds, blood samples were collected from the orbital venous plexus, and plasma was separated. A 0.5% methylcellulose solution (10 mL/kg) was orally administered to the control group.
The RBP4 level of the collected plasma was measured by ELISA. RBP4 was quantified by the following steps using a rabbit anti-mouse RBP4 polyclonal antibody (Hokudo Co., Ltd). A 96 well ELISA plate was coated with 50 μg/mL of the antibody (100 μL) and stood at 4° C. overnight. After blocking with BlockAce (DAINIPPON PHARMACEUTICAL CO., LTD.), mouse RBP4 or a sample (100 μL) was added and the plate was stood at room temperature for 2 hr. After washing with PBS-0.5% Tween 20, HRP-labeled anti-RBP4 antibody (prepared by labeling RBP4 polyclonal antibody (Hokudo Co., Ltd) with HRP (DOJINDO LABORATORIES)) was added by 100 μL, and the plate was stood at room temperature for 1 hr. After washing, TMB (Dako Cytomations) was added, and the mixture was stood at room temperature for 20 min to allow color development, and the reaction was quenched with 2N sulfuric acid. Thereafter, the absorbance at A450 nm was measured on a platereader. The amount of change from the initial value of each animal was determined as a relative value from the control group (% of initial/Control) at each time point. The results are shown in the following in mean±standard deviation (n=5).

Structure (SMILES): CC(C)(C)c1ccccc1OC1CN(C(=O)CCC(=O)O)C1 [Example 12, 4-(3-(2-tert-butylphenoxy)azetidin-1-yl)-4-oxobutanoic acid]
- IC50 (human RBP4): 210 nM
- TG (result in words) (Zucker fa/fa rat; versus control): significant decrease
- blood RBP4 concentration (result in words) (Zucker fa/fa rat; versus control): significant decrease
- RBP4 (Zucker fa/fa rat; plasma, mean±SD (n=5)): 8.2 ± 1.1 µg/mL
- TG (Zucker fa/fa rat; plasma, mean±SD (n=5)): 650.8 ± 130.6 mg/dL
- RBP4 (% of initial/Control) 4 hr later (RBP4; 4 hr after single oral 50 mg/kg): 57.7 ± 3.6 % of initial/Control
- RBP4 (% of initial/Control) 7 hr later (RBP4; 7 hr after single oral 50 mg/kg): 44.3 ± 2.0 % of initial/Control
- RBP4 (% of initial/Control) 24 hr later (RBP4; 24 hr after single oral 50 mg/kg): 50.0 ± 3.4 % of initial/Control
